Among the data in US12667572B2, “Tricyclic compounds useful in the treatment of cancer, autoimmune and inflammatory disorders” (SCHRÖDINGER, INC., priority 2021, dated 2026) are IC50 values, retold here.

Assay [1] concerns IL10 secretion in OCI-LY10 cells. The assay is described as follows: Human IL10 secretion assay, Assay 2 (MSD). The assay is classed as cell-based. Particulars: Homo sapiens, 24 h incubation, Meso Scale Discovery, read-out: IL-10 Secretion IC50 [nM] Assay 2. The protocol: IL10 is one of the cytokines that are regulated via activation of NF-kB signaling. For example, in ABC-DLBCL cell lines, the activated NF-kB signaling leads to increased IL10 secretion. Inhibition of NF-kB signaling has been shown leading to decreased IL10 secretion.
Assay 2: OCI-LY10 cells were seeded in IMEM supplemented with 20% fetal bovine serum at 4.8×10^5 cells per 160 μL per well in 96-well V-bottom cell culture plates (corning, 3894), treated with 120 nL of 3-fold serial compound dilutions, starting at 4 mM. The final vehicle concentration was 0.075% DMSO in all wells. After a 24 h incubation, human IL-10 precoated plates (Meso Scale Discovery) were washed 3 times with PBST, and 50 μL culture medium was aspirated into the MSD plate and incubated at 4° C. overnight. The supernatant was then discarded, and the wells were washed 3 times with PB ST. SULFO-TAG Anti-human IL-10 Antibody (50×) was diluted 50-fold according to the Meso Scale Protocol, then 25 μL of SULFO-TAG Anti-human IL-10 Antibody (1×) was added. After 2 h of incubation at RT, the supernatant was discarded, and the well was washed 3 times with PBST. 2×read buffer was added and the signal was read on an MSD Sector S600. The effect of a particular compound on IL10 secretion is shown relative to the effect of DMSO; set as 100%. IC50 values (nM) were determined using 4-parametric curve-fitting.

Assay [2] deals with T1, full-length MALT1 protein His-MALT1(1-824) (Homo sapiens, UniProt Q9UDY8).
T1 construct: full-length MALT1 protein His-MALT1(1-824); His (N); made in house; host or cells: baculovirus-infected insect cells
T1 sequence (Q9UDY8 1-824): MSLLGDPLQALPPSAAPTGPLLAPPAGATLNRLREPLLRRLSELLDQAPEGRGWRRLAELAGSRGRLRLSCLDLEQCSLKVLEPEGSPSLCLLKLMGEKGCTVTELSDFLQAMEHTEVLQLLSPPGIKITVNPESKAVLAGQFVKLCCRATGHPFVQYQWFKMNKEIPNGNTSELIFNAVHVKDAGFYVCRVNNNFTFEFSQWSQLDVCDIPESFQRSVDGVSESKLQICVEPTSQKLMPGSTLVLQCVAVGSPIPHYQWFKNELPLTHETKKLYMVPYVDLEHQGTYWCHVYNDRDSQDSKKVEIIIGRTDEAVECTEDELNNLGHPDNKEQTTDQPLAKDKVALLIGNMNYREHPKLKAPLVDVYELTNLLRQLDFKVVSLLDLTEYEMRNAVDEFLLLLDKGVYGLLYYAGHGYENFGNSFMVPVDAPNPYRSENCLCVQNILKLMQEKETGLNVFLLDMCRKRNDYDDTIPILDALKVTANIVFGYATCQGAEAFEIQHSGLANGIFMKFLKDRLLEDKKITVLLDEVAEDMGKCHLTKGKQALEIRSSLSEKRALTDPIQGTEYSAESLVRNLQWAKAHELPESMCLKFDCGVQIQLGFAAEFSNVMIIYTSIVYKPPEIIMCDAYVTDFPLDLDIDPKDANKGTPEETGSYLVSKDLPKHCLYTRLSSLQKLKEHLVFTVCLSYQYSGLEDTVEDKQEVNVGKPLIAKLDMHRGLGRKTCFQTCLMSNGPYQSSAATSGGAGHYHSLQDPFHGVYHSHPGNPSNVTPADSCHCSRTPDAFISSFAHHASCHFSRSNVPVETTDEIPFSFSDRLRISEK
The assay is described as follows: MALT1 protease assay, Assay 2 (1 nM MALT1, Ac-LRSR-AMC substrate). The assay is classed as biochemical. The note with it: 1 nM MALT1, 50 μM Ac-LRSR-AMC, 2 h pre-incubation, 8 hr incubation at RT. Put shortly: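 Compounds (0.1% DMSO final) sat 2 h at RT with insect-cell-expressed His-MALT1(1-824), in 50 mM Tris pH 7.5, 600 mM sodium citrate, 1 mM DTT, 1 mM EDTA, 0.05% BSA. Cleavage of 50 μM Ac-LRSR-AMC (Km ~100 μM) ran 8 h at RT, read as AMC fluorescence. IC50 and Hill coefficient fitted to % remaining activity.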

As for `CC1(C)CC(C(=O)Nc2cnc(OC(F)F)c(C#N)c2)c2cnc3cc(Cl)nn3c21` (single isomer, unassigned) [Example 79, 2-chloro-N-(5-cyano-6-(difluoromethoxy)pyridin-3-yl)-8,8-dimethyl-7,8-dihydro-6H-cyclopenta[e]pyrazolo[1,5-a]pyrimidine-6-carboxamide], the IC50 (in general, the point on the concentration scale where inhibition reaches its midpoint) in assay [1] is 10 to 100 nM; in assay [2], below 10 nM.
The like results for `CC1(C)CC(C(=O)Nc2cnc(OC3CC3)c(C#N)c2)c2cnc3cc(F)nn3c21` (single isomer, unassigned) [Example 81, N-(5-cyano-6-cyclopropoxypyridin-3-yl)-2-fluoro-8,8-dimethyl-7,8-dihydro-6H-cyclopenta[e]pyrazolo[1,5-a]pyrimidine-6-carboxamide] were, in that order, 100 to 1000 nM and 10 to 100 nM.
As to `CC1(C)CC(C(=O)Nc2cnc(OC(F)F)c(C#N)c2)c2cnc3cc(F)nn3c21` (single isomer, unassigned) [Example 84, N-(5-cyano-6-(difluoromethoxy)pyridin-3-yl)-2-fluoro-8,8-dimethyl-7,8-dihydro-6H-cyclopenta[e]pyrazolo[1,5-a]pyrimidine-6-carboxamide], the values for the IC50 in assay [1] and in assay [2] were 10 to 100 nM and below 10 nM, respectively.
The like results for `CC1(C)CC(C(=O)Nc2cnc(-n3nccn3)c(C#N)c2)c2cnc3cc(F)nn3c21` (single isomer, unassigned) [Example 89, N-(5-cyano-6-(2H-1,2,3-triazol-2-yl)pyridin-3-yl)-2-fluoro-8,8-dimethyl-7,8-dihydro-6H-cyclopenta[e]pyrazolo[1,5-a]pyrimidine-6-carboxamide] were, in that order, 100 to 1000 nM and below 10 nM.
The matching figures for `CC1(C)CC(C(=O)Nc2cnc(OC(F)F)c(C#N)c2)c2cnc3c(F)c(F)nn3c21` (single isomer, unassigned) [Example 91, N-(5-cyano-6-(difluoromethoxy)pyridin-3-yl)-2,3-difluoro-8,8-dimethyl-7,8-dihydro-6H-cyclopenta[e]pyrazolo[1,5-a]pyrimidine-6-carboxamide]: 100 to 1000 nM and 10 to 100 nM.
`O=C(Nc1cnc(-n2nccn2)c(Cl)c1)C1CC2(CC2)c2c1cnc1cc(F)nn21` (single isomer, unassigned) [Example 95, N-(5-chloro-6-(2H-1,2,3-triazol-2-yl)pyridin-3-yl)-2-fluoro-6,7-dihydrospiro[cyclopenta[e]pyrazolo[1,5-a]pyrimidine-8,1′-cyclopropane]-6-carboxamide]: the results for the half-inhibitory concentration (IC50) in assay [1] and in assay [2] were 100 to 1000 nM and 10 to 100 nM, respectively.
As for `O=C(Nc1cnc(-n2nccn2)c(Cl)c1)C1CC2(CC2)c2c1cnc1cc(Cl)nn21` (single isomer, unassigned) [Example 97, 2-chloro-N-(5-chloro-6-(2H-1,2,3-triazol-2-yl)pyridin-3-yl)-6,7-dihydrospiro[cyclopenta[e]pyrazolo[1,5-a]pyrimidine-8,1′-cyclopropane]-6-carboxamide], the half-maximal inhibitory concentration (IC50) in assay [1] is 100 to 1000 nM; in assay [2] it was 10 to 100 nM.
The like results for `CC1(C)CC(C(=O)Nc2cnc(-n3nccn3)c(Cl)c2)c2cnc3c(F)cnn3c21` (single isomer, unassigned) [Example 101, N-(5-chloro-6-(2H-1,2,3-triazol-2-yl)pyridin-3-yl)-3-fluoro-8,8-dimethyl-7,8-dihydro-6H-cyclopenta[e]pyrazolo[1,5-a]pyrimidine-6-carboxamide] were, in that order, 100 to 1000 nM and 10 to 100 nM.
The matching figures for `N#Cc1cc(NC(=O)C2CC3(CCC3)c3c2cnc2cc(F)nn32)cnc1OC(F)F` (single isomer, unassigned) [Example 103, N-(5-cyano-6-(difluoromethoxy)pyridin-3-yl)-2′-fluoro-6′,7′-dihydrospiro[cyclobutane-1,8′-cyclopenta[e]pyrazolo[1,5-a]pyrimidine]-6′-carboxamide]: 100 to 1000 nM and below 10 nM.
The matching figures for `CC1(C)CC(C(=O)Nc2cnc(-n3nccn3)c(C#N)c2)c2cnc3cc(Cl)nn3c21` (single isomer, unassigned) [Example 107, 2-chloro-N-(5-cyano-6-(2H-1,2,3-triazol-2-yl)pyridin-3-yl)-8,8-dimethyl-7,8-dihydro-6H-cyclopenta[e]pyrazolo[1,5-a]pyrimidine-6-carboxamide]: 10 to 100 nM and below 10 nM.
For the compound `O=C(Nc1cnc(-n2nccn2)c(Cl)c1)[C@H]1CC2(CCC2)c2c1cnc1cc(F)nn21` (single isomer, unassigned) [Example 108, N-(5-chloro-6-(2H-1,2,3-triazol-2-yl)pyridin-3-yl)-2′-fluoro-6′,7′-dihydrospiro[cyclobutane-1,8′-cyclopenta[e]pyrazolo[1,5-a]pyrimidine]-6′-carboxamide], the IC50 is 100 to 1000 nM in assay [1] and below 10 nM in assay [2].
On to `CC1(C)CC(C(=O)Nc2cnc(-n3ncc(C4COC4)n3)c(Cl)c2)c2cnc3cc(Cl)nn3c21` (single isomer, unassigned) [Example 111, 2-chloro-N-(5-chloro-6-(4-(oxetan-3-yl)-2H-1,2,3-triazol-2-yl)pyridin-3-yl)-8,8-dimethyl-7,8-dihydro-6H-cyclopenta[e]pyrazolo[1,5-a]pyrimidine-6-carboxamide], for which the concentration for half-maximal inhibition (IC50) in assay [1] was 10 to 100 nM; in assay [2] it was below 10 nM.
The like results for `CC1(C)CC(C(=O)Nc2cnc(-n3nccn3)c(Cl)c2)c2cnc3c(F)c(F)nn3c21` (single isomer, unassigned) [Example 122, N-(5-chloro-6-(2H-1,2,3-triazol-2-yl)pyridin-3-yl)-2,3-difluoro-8,8-dimethyl-7,8-dihydro-6H-cyclopenta[e]pyrazolo[1,5-a]pyrimidine-6-carboxamide] were, in that order, 100 to 1000 nM and below 10 nM.
The matching figures for `CC1(C)CC(C(=O)Nc2cc(N=S(C)(C)=O)nc(C(F)(F)F)c2)c2cnc3cc(F)nn3c21` (single isomer, unassigned) [Example 128, N-(2-((dimethyl(oxo)-λ^6-sulfaneylidene)amino)-6-(trifluoromethyl)pyridin-4-yl)-2-fluoro-8,8-dimethyl-7,8-dihydro-6H-cyclopenta[e]pyrazolo[1,5-a]pyrimidine-6-carboxamide]: 100 to 1000 nM and 10 to 100 nM.
The like results for `Cn1nnnc1-c1ncc(NC(=O)C2CC(C)(C)c3c2cnc2cc(Cl)nn32)cc1Cl` (single isomer, unassigned) [Example 145, 2-chloro-N-(5-chloro-6-(1-methyl-1H-tetrazol-5-yl)pyridin-3-yl)-8,8-dimethyl-7,8-dihydro-6H-cyclopenta[e]pyrazolo[1,5-a]pyrimidine-6-carboxamide] were, in that order, 100 to 1000 nM and below 10 nM.
Consider `O=C(Nc1cnc(-n2nccn2)c(C(F)(F)F)c1)C1CC2(CC2)c2c1cnc1cc(Cl)nn21` (single isomer, unassigned) [Example 149, N-(6-(2H-1,2,3-triazol-2-yl)-5-(trifluoromethyl)pyridin-3-yl)-2-chloro-6,7-dihydrospiro[cyclopenta[e]pyrazolo[1,5-a]pyrimidine-8,1′-cyclopropane]-6-carboxamide], for which the IC50 in assay [1] lay within 100 to 1000 nM; in assay [2], 10 to 100 nM.
